Assay results as given in patent US20160160264A1, “DIAGNOSTIC IN VITRO METHOD” (UNIVERSITÄT ZU KÖLN, priority 2013, published 2016).

Molecular target: T1, recombinantly expressed and purified TPMT (Homo sapiens, UniProt P51580)
T1 construct: made in house
T1 sequence (P51580 1-245): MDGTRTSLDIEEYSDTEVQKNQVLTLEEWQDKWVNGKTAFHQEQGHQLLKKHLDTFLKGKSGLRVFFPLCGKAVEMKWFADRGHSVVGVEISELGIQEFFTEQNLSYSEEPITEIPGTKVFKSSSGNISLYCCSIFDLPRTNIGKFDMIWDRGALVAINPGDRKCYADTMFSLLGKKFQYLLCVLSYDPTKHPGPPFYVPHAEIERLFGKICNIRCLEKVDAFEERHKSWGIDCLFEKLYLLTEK
Assay: Steady state kinetics with purified TPMT (substrate methylation, HPLC analysis)
Assay type: biochemical
Settings: compound as substrate of 3 ng/μL purified TPMT; Moco: urothione synthesis in presence of alkaline phosphatase; 6-mercaptopurine: 6-methylmercaptopurine synthesis
Protocol: (A) Kinetics of the urothione synthesis by TPMT in the presence of alkaline phosphatase. (B) Kinetics of the 6-methylmercaptopurine synthesis by TPMT. (C) Kinetic parameters of the kinetics shown in A and B.
The in vitro synthesis of urothione in kidney protein extracts is dependent on S-adenosylmethionine and Moco. […] Quantities used: 1.7 μg/μl kidney extract, 5 μM Moco, 500 μM SAM, 250 μM DTT in 0.1 M Tris/HCl pH7.5. The reaction was incubated for 4 h at 37° C. and then heat-denatured for 1 h at 60° for stopping and purified by means of QAE-Sepharose. The eluate was dried up and taken up in the HPLC solvent. HPLC analysis took place on a C4 Reprosil® 100 HPLC column, 150×2 mm, 5 μm particle size (Dr. Maisch GmbH) with 20 mM acetic acid and 15% methanol by isocratic elution. […] The increase of the peak at 24 min elution time indicates the formation of urothione. The increase of the peak at 31 min elution time indicates the formation of jukathione. Quantities used: 20 ng/μl TPMT, 2-16 μM Moco, 500 μM SAM, 250 μM DTT in 0.1 M Tris/HCl pH7.5. The reaction was incubated for 1 h at 37° C. and then heat-denatured for 1 h at 60° for stopping. The eluate was dried up and taken up in the HPLC solvent. HPLC analysis took place on a YMC C18 Hydrosphere@ column, 250×4 mm, 5 μm particle size with 20 mM formic acid by elution in a methanol gradient (0-25% 20 min, 1 mL/min). […] The in vitro transformation of Moco by means of liver extracts into urothione in the presence and absence of the TPMT inhibitor 3,4,5-triiodo benzoic acid is shown in FIG. 4. […] The in vitro transformation of Moco by purified TPMT into jukathione in the presence and absence of the TPMT inhibitor 3,4,5-triiodo benzoic acid is shown in FIG. 5. An HPLC chromatogram is shown of the analysis of jukathione after the incubation of purified 1 ng/μL TPMT with 500 μM SAM, 250 μM DTT and 10 μM Moco in the presence and absence of 2.5 μM 3,4,5-triiodo benzoic acid (inhibitor). […] What is depicted is the in vitro synthesis of urothione in protein extracts from RBCs from individuals with a normal TPMT activity (wild type) and persons with heterozygous mutations in the TPMT gene locus (heterozygous), and one person with a homozygous mutation (homozygous) in the TPMT gene locus. […] What is shown is the determination of the urothione content in individuals with a normal TPMT activity (wild type) and persons with heterozygous mutations in the TPMT gene locus (heterozygous), and two persons with homozygous mutations (homozygous) in the TPMT gene locus.
Urothione detection: 10 μM Moco (isolated from heat-denaturated human sulfite oxidase) are incubated in 50 mM Tris/HCl, pH 7.2, 1 mM SAM, 250 μM dithiothreitol and 1.7 μg/μL liver protein extract or 3.4 μg/μL RBCs for 4 h at 37° C. […]

Compound | KM | kcat
Sc1ncnc2nc[nH]c12 [6-mercaptopurine] | 69 µM | 0.047 s⁻¹
Nc1nc2c(c(=O)[nH]1)NC1C3=C([S][Mo](=[O])(=[O])([O-])[S]3)C(COP(=O)([O-])O)OC1N2 (stereo not shown) [Moco] | 2 µM | 0.129 s⁻¹
